Data on 1 compound can be found in patent publication US20080234291A1, “Mitratapide Oral Solution” (priority 2004, published 2008).

Molecules are shown by their SMILES. Values after ≈ are worked out from the molar mass of the structure shown.

A short description of data set [1]: solubility of mitratapide in different pharmaceutical solvents. The data set is classed as physicochemical. The settings on record: about 22° C.
The nature of data set [2]: solubility of mitratapide in water. The data set is classed as physicochemical. The method, then: Since mitratapide has a solubility of less than 0.5 μg/ml in water, which can be increased to 0.4 mg/ml at a pH of 1.2, the presence of a solubilizing agent is necessary for the preparation of aqueous solutions. Hydroxypropyl-β-cyclodextrin (HP-β-CD) is a suitable solubilizing agent with which mitratapide forms higher order water soluble complexes. In order to obtain an aqueous solution comprising mitratapide with a concentration of 5 mg/ml it is necessary to use HP-β-CD in an amount of 250 mg/ml and adjusting the pH to 4. Furthermore it is necessary to add an antimicrobial preservative to these aqueous HP-β-CD solutions to protect them against microbial spoilage during manufacture or use. The addition of benzoic acid, a well known antimicrobial preservative for acidic aqueous solutions having a pH ≦4.5, however caused a precipitation of mitratapide probably due to a competition between mitratapide and benzoic acid for inclusion into the HP-β-CD cavity. To compensate, the HP-β-CD concentration had to be increased from 250 mg/ml to 400 mg/ml to solubilize mitratapide at a concentration of 5 mg/ml. […]

Take `CCC(C)n1ncn(-c2ccc(N3CCN(c4ccc(OCC5COC(CSc6nncn6C)(c6ccc(Cl)cc6)O5)cc4)CC3)cc2)c1=O` (stereo not drawn) [mitratapide, (−)-[2S-[2α,4α(S*)]]-4-[4-[4-[4-[[2-(4-chlorophenyl)-2-[[(4-methyl-4H-1,2,4-triazol-3-yl)thio]methy]-1,3-dioxolan-4-yl]methoxy]pheny]-1-piperazinyl]phenyl]-2,4-dihydro-2-(1-methylpropyl)-3H-1,2,4-triazol-3-one]: the solubility in data set [1] (caprylic/capric/linoleic acid triglyceride (Miglyol 818), oil or lipid, caprylidcapridlinoleic acid triglyceride (Miglyol 818 ®)) is less than 5000 µg/mL; in data set [1] (oil or lipid, apricot Kernel oil PEG-6 complex (Labrafil 1944CS ®)), less than 5000 µg/mL; in data set [1] (oil or lipid, caprylic/capric acid triglyceride (Miglyol 812 ®)), less than 5000 µg/mL; in data set [1] (oil or lipid, caprylic/capric diester of propylene glycol) it was less than 5000 µg/mL; in data set [1] (oil or lipid, caprylic/capric/succinic acid triglyceride (Miglyol 829 ®)) it was less than 5000 µg/mL; in data set [1] (oil or lipid, caprylocaproyl-8 glyceride (Labrasol ®)) it was greater than 5000 µg/mL. In addition, the solubility in data set [1] (oil or lipid, corn oil PEG-6 complex (Labrafil 2125CS ®)) is less than 5000 µg/mL; in data set [1] (oil or lipid, sesame oil), less than 50 µg/mL; in data set [1] (organic solvent or mixture, diethylene glycol monoethyl ether (Transcutol ®)), greater than 5000 µg/mL; in data set [1] (organic solvent or mixture, dimethyl isosorbide (2,5-di-O-methyl-1,4:3,6-dianhydro D-glucitol)) it was greater than 5000 µg/mL; in data set [1] (propylene glycol monolaurate (Lauroglycol), oil or lipid, Dropylene glycol monolaurate (Lauroglycol ®)), greater than 5000 µg/mL; in data set [2] (water at pH 1.2, pH 1.2, simulated gastric fluid, pH of 1.2, read-out: solubility in water at pH 1.2), 400 µg/mL (≈ 0.558 mM). The solubility in data set [2] (water, read-out: solubility in water) is less than 0.5 µg/mL.
